Patent publication US9579358B2, “Compositions for binding to amyloid proteins” (LANCASTER UNIVERSITY BUSINESS ENTERPRISES LIMITED, priority 2011, dated 2017)
Non-standard residues stand in square brackets, D forms with d. Residues, ends and D or L forms follow the SMILES beside them. No end group written: not given here.

What was measured:
Aβ42 = biological target: T1, Aβ42 (Homo sapiens, UniProt P05067); experiment: Atomic force microscopy of incubated Aβ42; assay type: biochemical; conditions: 1:2 molar ratio RI-OR2-TAT:Aβ42; Aβ42 25 μM, 24 h
T1 construct: Recombinant Aβ42, Ultrapure, was purchased from rPeptide, Bogart, Ga., USA; purchased rPeptide, Bogart, Ga., USA
T1 sequence (P05067 672-713 limits assumed): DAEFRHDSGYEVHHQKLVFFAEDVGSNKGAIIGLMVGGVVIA
Procedure: Aβ42 was incubated at 25 μM in the presence or absence of 12.5 μM RI-OR2-TAT in PBS, pH 7.4, for 24 h. Samples were diluted 1:10 in PBS and then a 2 μl aliquot was deposited onto the surface of freshly cleaned mica and allowed to dry.
Images were obtained in tapping mode using a Multimode™ SPM NanoScope IIIa microscope (Digital Instruments, New York, USA). Silicon cantilever tips measuring 125 μm long, 30 μm wide and with a tip radius <10 nm were used (Budget Sensors, Bulgaria). The resonance frequency was 300 kHz and force constants 40 Nm. All images were first order flattened and edited using WSxM 5.0 Develop 4.3 software, (Nanotech, Madrid, Spain).

[1] = test system: SHSY-5Y neuroblastoma cells; experiment: LDH assay, protection against Aβ42-mediated toxicity; assay type: cell-based; conditions: 5 μM Aβ42 plus 0.1-10 μM peptide, 24 h
Procedure: For cell toxicity assays (Example 3), SHSY-5Y neuroblastoma cells were maintained in 10% Fetal Calf Serum supplemented Dulbecco's Modified Eagle Medium (DMEM, Gibco) under standard mammalian cell culture conditions. The cells were transferred to sterile 96-well growth plates at 20,000 cells/well and 4 wells per condition. To test for any toxic effects of RI-OR2-TAT alone on the cells, they were left to adhere for 24 h before the addition of the inhibitor (at 12.5, 25, 50, 100 and 200 μM), in DMEM. To look at the ability of RI-OR2-TAT to protect against Aβ toxicity, the cell growth medium was changed to Optimem (Invitrogen) and Aβ42, pre-aggregated (at 100 μM) for 24 h at 25° C. in PBS, was added to the cells at a concentration of 5 μM, together with various amounts (0, 0.1, 0.5, 1, 5 or 10 μM) of RI-OR2-TAT. In each case, after a further 24 h incubation period, the viability of the cells was assessed using a CytoTox 96® Non-Radioactive Cytotoxicity Assay (LDH) Assay (Promega) kit.

APP/PS1 transgenic mice = experiment: Brain pathology after 21 days of treatment; assay type: in vivo; conditions: 100 nMol/kg i.p. once daily
Description: APPswe/PS1ΔE9 mice with a C57Bl/6 background (APP/PS1 mice) were obtained from the Jackson lab (http://research.iax.org/repository/alzheimers.html). To determine if Flu-RI-OR2-TAT crosses the blood brain barrier (Example 4), 2 male 17-months-old APP/PS1 animals and 2 16-months-old C57BL6 animals were used. To look at the effects of RI-OR2-TAT on mouse brain pathology (Example 5), 8 female 10-months-old APP/PS1 mice were used. The animals were housed in single cages in a temperature controlled holding room (21.5° C.±1) with 12:12 h light and dark cycle. Food and water was available ad libitum.
For Example 5, 4 animals were injected intraperitonially (i.p.) with 0.9% NaCl (vehicle control) and the other 4 with RI-OR2-TAT (100 nMol/Kg in 0.9% NaCl) once daily, for 21 days. On the 22nd day, the animals were perfused transcardially with ice-cold PBS and 4% paraformaldehyde and then the brains were removed and post-fixed in 4% ice cold paraformaldehyde.
All brains in paraformaldehyde were transferred to 30% sucrose overnight and then snap frozen with Envirofreez™ (Sigma, UK) and, using a Leica cryostat, 40 microns thick coronal sections were cut at anatomical regions of −2 to −3 bregma. Sections were preserved in cryoprotect with the first section taken at random and then every 5th section afterwards.
For Example 5, to stain for activated microglia, an inflammation response marker, sections were pretreated with 0.05 M sodium citrate buffer, pH 9, and incubated at 90° C. for 30 mins and stained with anti Iba-1 (1:2000 dilution, Wako 016-20001, Germany). For the oxidative stress marker, DNA denaturation was carried out with 2N HCl and the sections were stained for 8-oxo guanine (1:200 dilution, MAB3560, Millipore). Young immature neurons were detected by immunostaining for doublecortin (1:200 dilution, sc-66911, Santa Cruz Biotechnology). Total plaque load was quantified by immunostaining for β-amyloid (1:200 dilution, Invitrogen, 71-5800).
All sections were visualized using an Axio Scope 1 fluorescence microscope (Zeiss, Germany). For quantification, two images per section were taken from the cortex area with a 10× objective for 8-oxo guanine and β-amyloid staining, and a 100× objective for Iba1 staining, with a minimum of 5 sections visualized per animal. Image analysis was performed using multi threshold plug in Image J (NIH, USA).
Human oligomerised Aβ was measured using a kit purchased from Invitrogen, according to the manufacturer's instructions. Briefly, the right hemispheres from the brains of transgenic APP/PS1 mice treated with RI-OR2-TAT, or controls, were pooled separately and homogenized. Quantification of total protein was determined using the Bradford protein assay and was measured on a Nanophotometer (Implen, Germany). The homogenates were centrifuged at 100,000 g at 4° C. for 1 h. The supernatant was then diluted 1:10 before carrying out the sandwich ELISA, which measures soluble Aβ oligomer levels, but not amyloid monomers, as detailed in the manufacturer's protocol. The final AR oligomer values were determined following normalization of total protein levels.

SHSY-5Y cells = experiment: MTT cell viability assay, protection from pre-aggregated Aβ1-42; assay type: cell-based; conditions: for Absorption units (560 nm): control with Abeta 2.467, no Abeta 3.608
Procedure: SHSY 5Y cells were grown and maintained in DMEM (Dulbecco's Modified Eagle Medium) supplemented with FBS under standard mammalian cell culture conditions. During treatment cells were kept in Optimem plus or minus peptide liposomes in 96 well plates at 20000 cells per well for 24 hours, again under standard culture conditions. For cell protection assays 5 μM of pre-aggregated Aβ1-42 was added at the same time as peptide liposomes. Cell viability was assessed for four wells for each treatment using a Promega CellTiter assay kit.

[2] = Nanoparticle Tracking Analysis (NTA); assay type: physicochemical
Description: The particles were investigated by Nanoparticle Tracking Analysis (NTA) which is a method for visualizing and analyzing particles in liquids that can be used to determine the size of individual particles by tracking their rate of Brownian motion.

| Compound | oligomer formation in AFM images (Aβ42) | effect on Aβ42 toxicity to cells [1] | increase of mean number of young doublecortin-expressing neurons in the dentate region (APP/PS1 transgenic mice) | reduction of cortical level of 8-oxo-guanine immunostaining (APP/PS1 transgenic mice) | reduction of number of activated microglia in the cortex (APP/PS1 transgenic mice; Iba1 immunostaining) | reduction of soluble Aβ oligomer levels in the brain (APP/PS1 transgenic mice; sandwich ELISA) | reduction of amyloid plaque load in the cortex (APP/PS1 transgenic mice; versus saline, β-amyloid immunostaining) | Absorption units (560 nm) (SHSY-5Y cells; PINPs 0.01 μM plus 5 μM pre-aggregated Aβ1-42) | Absorption units (560 nm) (SHSY-5Y cells; PINPs 0.1 μM plus 5 μM pre-aggregated Aβ1-42) | Absorption units (560 nm) (SHSY-5Y cells; PINPs 1 μM plus 5 μM pre-aggregated Aβ1-42) | Absorption units (560 nm) (SHSY-5Y cells; PINPs 10 μM plus 5 μM pre-aggregated Aβ1-42) | cell viability in the presence of pre-aggregated Aβ1-42 (SHSY-5Y cells; PINPs at 10, 1, 0.1, 0.01 μM) | average diameter [2] |
| --- | --- | --- | --- | --- | --- | --- | --- | --- | --- | --- | --- | --- | --- |
| CC(=O)N[C@H](CCCNC(=N)N)C(=O)NCC(=O)N[C@H](Cc1ccccc1)C(=O)N[C@H](Cc1ccccc1)C(=O)N[C@@H](C(=O)N[C@H](CC(C)C)C(=O)N[C@H](CCCCN)C(=O)NCC(=O)N[C@H](CCCNC(=N)N)C(=O)N[C@H](CCCNC(=N)N)C(=O)N[C@H](CCCNC(=N)N)C(=O)N[C@H](CCCNC(=N)N)C(=O)N[C@H](CCC(N)=O)C(=O)N[C@H](CCCNC(=N)N)C(=O)N[C@H](CCCNC(=N)N)C(=O)N[C@H](CCCCN)C(=O)N[C@H](CCCCN)C(=O)N[C@H](CCCNC(=N)N)C(=O)NCC(=O)N[C@H](Cc1ccc(O)cc1)C(N)=O)C(C)C [RI-OR2-TAT, Ac-rGffvlkGrrrrqrrkkrGy-NH2] (Ac-[dR]G[dF][dF][dV][dL][dK]G[dR][dR][dR][dR][dQ][dR][dR][dK][dK][dR]G[dY]-NH2) | clear inhibition of oligomer formation | inhibits the toxic effects of Aβ42 | 210% | 25% | 44% | 25% | 32% | – | – | – | – | – | – |
| PINPs: RI-OR2-TAT covalently attached to nanoliposomes (cholesterol:sphingomyelin [1:1] with 2.5% maleimide) via an additional cysteine (Ac-[dR]G[dF][dF][dV][dL][dK]G[dR][dR][dR][dR][dQ][dR][dR][dK][dK][dR]G[dY][dC]; not fully specified (residue 21); also: C-terminal D-Cys coupled via its thiol to maleimide lipid of nanoliposome) | – | – | – | – | – | – | – | 3.370 Absorption units | 3.478 Absorption units | 3.252 Absorption units | 3.538 Absorption units | cell viability remained near that of untreated cells | 130 nm |
